In ChEMBL document CHEMBL1201862, “PubChem BioAssay data set” (2004):
Values joined by “and” are separate entries in the source; they are usually repeats but may differ in a detail not shown here. Identical values can stand only once. Active and inactive are the calls of the source.

What was measured:
HEK293 [1] = assay: cells; assay type: functional, cell-based; details: Homo sapiens
HEK293 [2] = assay: cells; details: Homo sapiens
HEK293 [3] = assay: cells; assay type: functional, cell-based; details: Homo sapiens; remark: listed apart in the source
Tumor necrosis factor = Tumor necrosis factor (Homo sapiens, UniProt P01375); assay: analog potency on TNFa NF-kB signaling – cell-based, revised, SAR follow-up (AID 2337); assay type: functional
[4] = biological target: T1, Nucleotide-binding oligomerization domain-containing protein 1 (Homo sapiens, UniProt Q9Y239); assay: blockers of NOD1 pathway activity – revised, SAR follow-up (AID 2333); assay type: functional
T1 sequence (Q9Y239 whole entry): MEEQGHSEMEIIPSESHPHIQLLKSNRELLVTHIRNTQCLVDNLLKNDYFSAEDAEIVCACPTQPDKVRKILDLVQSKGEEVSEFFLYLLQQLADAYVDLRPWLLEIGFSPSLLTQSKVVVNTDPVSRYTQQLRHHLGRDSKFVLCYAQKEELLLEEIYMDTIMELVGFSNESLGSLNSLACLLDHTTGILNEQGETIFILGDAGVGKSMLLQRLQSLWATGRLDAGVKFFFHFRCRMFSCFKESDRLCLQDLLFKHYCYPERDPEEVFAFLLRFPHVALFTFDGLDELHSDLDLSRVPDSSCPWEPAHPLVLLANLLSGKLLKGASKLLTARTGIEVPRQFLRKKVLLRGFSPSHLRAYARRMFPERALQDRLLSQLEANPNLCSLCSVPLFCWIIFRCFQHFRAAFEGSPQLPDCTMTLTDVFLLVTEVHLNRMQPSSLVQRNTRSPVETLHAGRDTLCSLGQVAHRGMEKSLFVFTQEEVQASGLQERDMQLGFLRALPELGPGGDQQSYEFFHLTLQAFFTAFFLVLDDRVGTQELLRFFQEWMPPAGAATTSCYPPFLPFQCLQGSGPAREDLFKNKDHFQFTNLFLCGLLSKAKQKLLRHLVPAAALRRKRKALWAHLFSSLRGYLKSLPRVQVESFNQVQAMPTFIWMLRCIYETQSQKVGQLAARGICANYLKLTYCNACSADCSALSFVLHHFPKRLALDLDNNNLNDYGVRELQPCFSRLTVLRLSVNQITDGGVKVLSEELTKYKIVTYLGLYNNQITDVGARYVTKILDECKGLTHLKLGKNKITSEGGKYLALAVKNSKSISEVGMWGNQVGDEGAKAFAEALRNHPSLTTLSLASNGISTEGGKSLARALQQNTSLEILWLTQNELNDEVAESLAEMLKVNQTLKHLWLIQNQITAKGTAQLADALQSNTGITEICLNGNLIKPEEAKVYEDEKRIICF

HEK293 [5] = assay: inhibition of NOD1-driven NF-kB reporter – cell-based, luminescence, uHTS, primary screen (AID 1578); assay type: functional; details: Homo sapiens
HEK293 [6] = assay: NOD2 signaling inhibitors in MDP-stimulated cells, cell-based, uHTS, luminescence (AID 2001); assay type: functional; details: Homo sapiens
[7] = biological target: T2, Endoribonuclease toxin MazF (Escherichia coli K-12, UniProt P0AE70); assay: substrate-only fluorescence increase artefacts – biochemical, single-stranded RNase substrate, counter-screen for MazEF activator project, dose response (AID 588502); assay type: functional
T2 sequence (P0AE70 whole entry): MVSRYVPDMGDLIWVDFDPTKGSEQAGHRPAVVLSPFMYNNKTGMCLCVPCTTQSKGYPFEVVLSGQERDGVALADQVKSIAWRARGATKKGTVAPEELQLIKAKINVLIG

[8] = biological target: T2, Endoribonuclease toxin MazF; assay: activation of MazEF endoribonuclease cleavage – biochemical, fluorescence, single-stranded RNA substrate, uHTS hits, dose response (AID 588481); assay type: functional
[9] = biological target: ATP-dependent molecular chaperone HSP82 (Candida albicans (strain WO-1) (Yeast), UniProt C4YTQ8); assay: steroid-induced GRE reporter decrease in yeast – S. cerevisiae, luminescence, Hsp90 inhibitor project, dose response (AID 2400); assay type: functional, cell-based;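 further: beta-galactosidase luminescence from glucocorticoid response element reporter as proxy for Hsp90 function; inhibitor potency where signal loss means Hsp90 inhibition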
[10] = fluconazole-exposed Candida albicans growth modulators – fluorescence, retest, confirmation (AID 2467); assay type: functional, cell-based
[11] = biological target: Serine/threonine-protein phosphatase (Candida dubliniensis (strain CD36 / CBS 7987 / NCPF 3949 / NRRLY-17841) (Yeast), UniProt B9W6M3); assay: blockers of CaCl2-induced CDRE-lacZ signaling – S. cerevisiae, luminescence, secondary, dose response (AID 2388); assay type: functional, cell-based;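 further: yeast reporter cells carrying a calcineurin-responsive lacZ construct stimulated with calcium chloride; luminescent beta-galactosidase reporter signal in whole cells rather than isolated phosphatase activity; potency for inhibition where a drop in reporter signal means calcineurin blockade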
INS1 = assay: INS-1E survival protection against cytokine death – cell-based, luminescence, retest, dose response (AID 449756); assay type: functional; details: Rattus norvegicus;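 further: cell death triggered by IL-1 beta plus TNF-alpha plus IFN-gamma mixture; protective hits raise ATP signal compared with cytokine alone wells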
[12] = NIH-3T3 fibroblast cytotoxicity, dose response, cytotoxicity control, cell-based, fluorescence, Alamar Blue, secondary assay (AID 2327); assay type: functional;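 further: NIH-3T3 mouse fibroblasts cultured with fluconazole at 8 µg/mL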
[13] = biological target: T3, Nuclear receptor subfamily 0 group B member 1 (Homo sapiens, UniProt P51843); assay: Luminescence-based cell-based high throughput dose response assay for inhibitors of the orphan nuclear receptor subfamily 0, group B, member 1 (DAX1; NR0B1). [Related pubchem assays (depositor defined):AID504766, AID504790]; assay type: functional
T3 sequence (P51843 whole entry): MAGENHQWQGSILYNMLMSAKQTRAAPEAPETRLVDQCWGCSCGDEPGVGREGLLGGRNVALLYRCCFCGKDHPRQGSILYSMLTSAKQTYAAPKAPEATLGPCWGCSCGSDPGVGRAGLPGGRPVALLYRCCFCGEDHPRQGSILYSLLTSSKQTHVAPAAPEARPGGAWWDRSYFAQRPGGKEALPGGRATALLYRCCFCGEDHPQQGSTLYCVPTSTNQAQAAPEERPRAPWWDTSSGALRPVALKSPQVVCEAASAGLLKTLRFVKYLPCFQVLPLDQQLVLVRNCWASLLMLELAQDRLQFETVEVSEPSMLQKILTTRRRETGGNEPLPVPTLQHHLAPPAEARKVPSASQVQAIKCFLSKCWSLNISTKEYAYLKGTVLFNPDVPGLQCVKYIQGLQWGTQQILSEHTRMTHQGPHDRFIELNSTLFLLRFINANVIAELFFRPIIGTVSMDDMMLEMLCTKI

HEK293 [14] = assay: cells; assay type: functional, cell-based; details: Homo sapiens; remark: listed apart in the source
[15] = biological target: T4, Dual specificity protein phosphatase 3 (Homo sapiens, UniProt P51452); assay: SAR VHR1 Fluorescent Assay for In Vitro dose response studies Set 2. [Related pubchem assays (depositor defined):AID1654, AID1661, AID1878]; assay type: functional
[16] = biological target: DNA dC->dU-editing enzyme APOBEC-3G (Homo sapiens, UniProt Q9HC16); assay: Dose Response confirmation of small molecule APOBEC3G DNA Deaminase Inhibitors via a fluorescence-based single-stranded DNA deaminase assay. [Related pubchem assays (depositor defined):AID493012, AID493028]; assay type: functional
[17] = biological target: DNA dC->dU-editing enzyme APOBEC-3A (Homo sapiens, UniProt P31941); assay: A3A deaminase inhibition for selectivity – biochemical, dose response (AID 504722); assay type: functional
[18] = biological target: T5, Tyrosine-protein phosphatase non-receptor type 7 (Homo sapiens, UniProt P35236); assay: SAR analysis of chemical inhibitors of HePTP using a Fluorescent assay - Set 2. [Related pubchem assays (depositor defined):AID1059, AID1077, AID1661, AID2085, AID521]; assay type: functional
T5 sequence (P35236 whole entry): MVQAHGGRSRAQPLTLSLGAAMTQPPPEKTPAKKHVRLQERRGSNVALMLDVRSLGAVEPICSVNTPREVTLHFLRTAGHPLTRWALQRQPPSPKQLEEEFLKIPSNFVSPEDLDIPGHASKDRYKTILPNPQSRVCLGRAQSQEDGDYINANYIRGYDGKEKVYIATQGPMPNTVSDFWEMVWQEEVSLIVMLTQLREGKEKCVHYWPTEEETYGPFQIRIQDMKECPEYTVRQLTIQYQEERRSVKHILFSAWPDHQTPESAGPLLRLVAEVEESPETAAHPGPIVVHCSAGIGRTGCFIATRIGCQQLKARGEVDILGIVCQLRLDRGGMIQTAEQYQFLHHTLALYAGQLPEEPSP

[19] = biological target: T6, Dual specificity protein phosphatase 6 (Rattus norvegicus, UniProt Q64346); assay type: functional
T6 sequence (Q64346 whole entry): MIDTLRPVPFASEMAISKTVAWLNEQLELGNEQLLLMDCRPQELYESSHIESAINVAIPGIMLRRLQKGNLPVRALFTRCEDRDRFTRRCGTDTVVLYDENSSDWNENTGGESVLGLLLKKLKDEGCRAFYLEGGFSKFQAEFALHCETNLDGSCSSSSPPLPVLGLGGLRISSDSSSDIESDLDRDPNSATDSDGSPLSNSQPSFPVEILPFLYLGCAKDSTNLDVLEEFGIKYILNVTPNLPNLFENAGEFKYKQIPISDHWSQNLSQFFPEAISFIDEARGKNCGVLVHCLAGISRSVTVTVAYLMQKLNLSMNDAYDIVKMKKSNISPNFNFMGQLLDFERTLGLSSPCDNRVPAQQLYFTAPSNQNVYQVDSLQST

[20] = biological target: T4, Dual specificity protein phosphatase 3; assay: SAR VHR1 Fluorescent Assay for In Vitro dose response studies. [Related pubchem assays (depositor defined):AID1654, AID1661, AID1878, AID1992, AID2004, AID2070, AID2085]; assay type: functional
[21] = biological target: T4, Dual specificity protein phosphatase 3; assay: SAR VHR1 absorbance Assay for In Vitro dose response studies. [Related pubchem assays (depositor defined):AID1654, AID1661, AID1878, AID1992, AID2004]
[22] = biological target: T5, Tyrosine-protein phosphatase non-receptor type 7; assay: redox-active compounds inhibiting HePTP phosphatase – biochemical, fluorescence, mechanism study (AID 2068); assay type: functional
[23] = biological target: T5, Tyrosine-protein phosphatase non-receptor type 7; assay: inhibition of hematopoietic tyrosine phosphatase HePTP – biochemical, set 2, SAR follow-up (AID 449736); assay type: functional
[24] = biological target: T6, Dual specificity protein phosphatase 6; assay: SAR analysis of inhibitors of MKP-3 - Set 2. [Related pubchem assays (depositor defined):AID1055, AID1661, AID425, AID553, AID566]; assay type: functional
[25] = off-target signal loss in HeLa-CEM21 co-culture – HeLa F-luc CTL cells, cherry-picked, counter-screen for HIV-1 Env fusion inhibitor project, dose response (AID 652040); assay type: functional, cell-based;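 further: potency for signal decrease marking cytotoxic or nonspecific inhibition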
[26] = HIV-1 AD8 envelope cell-cell fusion blockers – cherry-pick, dose response (AID 652062); assay type: functional, cell-based;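 further: luciferase signal from cell-cell fusion driven by HIV-1 clade B AD8 Env; potency is for inhibitors of fusion seen as a drop in luminescence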
[27] = blockers of HIV-1 ZM109 envelope-driven cell-cell fusion – HeLa effector, CEM target cells, luciferase, cherry-pick, dose response (AID 652058); assay type: functional, cell-based;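 further: luciferase signal from HIV-1 Env mediated cell-cell fusion of effector and target cells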
[28] = viability loss in CEM21 cells – cell-based, CellTiter-Glo luminescence, cherry-picked, cytotoxicity control for viral fusion inhibitor project, dose response (AID 652042); assay type: functional;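 further: potency for signal decrease meaning cytotoxicity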
[29] = blockers of HIV-1 envelope-mediated cell-cell fusion – cherry-pick, dose response (AID 652057); assay type: functional, cell-based
[30] = biological target: T7, Polyadenylate-binding protein 1 (Homo sapiens, UniProt P11940); assay: MLLE binding blockers, Cy5 peptide tracer – biochemical, fluorescence polarization, Cy5-PAM2 peptide, secondary, miRNA deadenylation inhibitor project, dose response (AID 602260); assay type: functional; details: read-out: IC50_Mean
[31] = biological target: T7, Polyadenylate-binding protein 1; assay: MLLE domain peptide-binding blockers, IC50 – biochemical, fluorescence polarization, FITC-PAM2 peptide, dose response (AID 602259); assay type: functional; details: read-out: IC50_Mean

T4 sequence (P51452 whole entry): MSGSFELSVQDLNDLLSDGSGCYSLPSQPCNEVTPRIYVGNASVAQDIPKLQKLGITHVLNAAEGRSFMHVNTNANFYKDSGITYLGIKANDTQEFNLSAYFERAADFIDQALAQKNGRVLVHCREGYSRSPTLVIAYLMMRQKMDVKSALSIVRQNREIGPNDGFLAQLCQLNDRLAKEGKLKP
Sequence of Serine/threonine-protein phosphatase (B9W6M3 whole entry): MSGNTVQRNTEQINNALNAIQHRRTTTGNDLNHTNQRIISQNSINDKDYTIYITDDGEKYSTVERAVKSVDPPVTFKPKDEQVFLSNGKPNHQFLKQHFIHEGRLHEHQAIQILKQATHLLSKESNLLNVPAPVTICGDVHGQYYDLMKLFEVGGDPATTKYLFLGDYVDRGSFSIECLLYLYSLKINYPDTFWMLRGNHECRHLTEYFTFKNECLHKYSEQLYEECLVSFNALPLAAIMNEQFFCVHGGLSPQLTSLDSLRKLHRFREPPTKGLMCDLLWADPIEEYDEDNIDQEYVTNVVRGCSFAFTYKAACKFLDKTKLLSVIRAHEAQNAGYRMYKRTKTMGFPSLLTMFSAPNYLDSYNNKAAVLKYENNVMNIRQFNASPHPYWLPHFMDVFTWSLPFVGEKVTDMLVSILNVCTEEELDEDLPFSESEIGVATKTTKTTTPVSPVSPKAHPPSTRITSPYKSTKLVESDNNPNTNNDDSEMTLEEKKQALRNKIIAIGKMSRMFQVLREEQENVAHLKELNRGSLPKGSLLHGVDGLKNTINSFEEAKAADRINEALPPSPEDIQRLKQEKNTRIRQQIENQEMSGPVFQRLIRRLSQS
Sequence of ATP-dependent molecular chaperone HSP82 (C4YTQ8 whole entry): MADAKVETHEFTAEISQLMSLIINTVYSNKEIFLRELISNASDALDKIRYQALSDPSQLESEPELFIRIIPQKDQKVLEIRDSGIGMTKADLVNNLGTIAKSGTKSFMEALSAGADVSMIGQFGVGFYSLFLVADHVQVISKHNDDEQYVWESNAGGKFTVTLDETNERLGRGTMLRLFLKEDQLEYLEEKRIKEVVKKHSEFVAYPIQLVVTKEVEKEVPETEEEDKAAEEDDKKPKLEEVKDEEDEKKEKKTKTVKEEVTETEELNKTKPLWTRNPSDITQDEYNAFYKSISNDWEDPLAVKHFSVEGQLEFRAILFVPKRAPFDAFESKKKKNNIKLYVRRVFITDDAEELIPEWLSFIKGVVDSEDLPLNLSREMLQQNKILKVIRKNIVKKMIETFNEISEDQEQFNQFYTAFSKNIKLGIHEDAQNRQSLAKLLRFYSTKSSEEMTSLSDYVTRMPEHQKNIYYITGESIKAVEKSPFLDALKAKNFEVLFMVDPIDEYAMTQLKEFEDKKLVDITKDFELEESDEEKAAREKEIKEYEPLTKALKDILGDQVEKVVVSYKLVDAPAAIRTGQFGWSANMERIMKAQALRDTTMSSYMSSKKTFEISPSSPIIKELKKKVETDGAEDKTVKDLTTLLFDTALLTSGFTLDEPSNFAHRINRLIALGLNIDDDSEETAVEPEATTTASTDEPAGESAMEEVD
T7 sequence (P11940 whole entry, the tested form may be a part): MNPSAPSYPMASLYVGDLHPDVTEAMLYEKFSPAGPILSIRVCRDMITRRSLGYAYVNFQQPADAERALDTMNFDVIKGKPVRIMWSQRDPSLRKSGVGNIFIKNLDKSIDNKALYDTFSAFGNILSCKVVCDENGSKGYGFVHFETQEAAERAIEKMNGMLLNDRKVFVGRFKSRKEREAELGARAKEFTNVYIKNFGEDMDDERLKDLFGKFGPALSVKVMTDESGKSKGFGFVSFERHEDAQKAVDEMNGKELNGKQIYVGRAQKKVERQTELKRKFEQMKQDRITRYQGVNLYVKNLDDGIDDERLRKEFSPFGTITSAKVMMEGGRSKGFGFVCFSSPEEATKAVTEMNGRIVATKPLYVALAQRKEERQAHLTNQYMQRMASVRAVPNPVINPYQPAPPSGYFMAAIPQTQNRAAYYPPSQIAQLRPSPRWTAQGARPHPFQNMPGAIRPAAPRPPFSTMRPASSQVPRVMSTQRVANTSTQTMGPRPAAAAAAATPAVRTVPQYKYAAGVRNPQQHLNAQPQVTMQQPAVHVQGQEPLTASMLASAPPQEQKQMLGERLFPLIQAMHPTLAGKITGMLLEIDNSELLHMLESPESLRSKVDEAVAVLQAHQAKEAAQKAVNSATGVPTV
Sequence of DNA dC->dU-editing enzyme APOBEC-3G (Q9HC16 whole entry): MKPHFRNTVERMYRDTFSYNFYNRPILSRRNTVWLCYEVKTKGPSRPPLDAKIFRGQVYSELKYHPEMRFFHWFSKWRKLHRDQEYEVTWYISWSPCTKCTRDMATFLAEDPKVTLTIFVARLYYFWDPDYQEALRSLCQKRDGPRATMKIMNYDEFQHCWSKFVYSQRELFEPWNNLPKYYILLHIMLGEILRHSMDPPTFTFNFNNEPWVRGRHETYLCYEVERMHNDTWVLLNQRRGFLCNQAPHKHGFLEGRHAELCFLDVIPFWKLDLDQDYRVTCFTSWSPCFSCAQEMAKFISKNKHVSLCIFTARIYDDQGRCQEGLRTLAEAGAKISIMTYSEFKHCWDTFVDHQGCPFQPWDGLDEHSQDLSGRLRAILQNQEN
Sequence of Tumor necrosis factor (P01375 whole entry, the tested form may be a part): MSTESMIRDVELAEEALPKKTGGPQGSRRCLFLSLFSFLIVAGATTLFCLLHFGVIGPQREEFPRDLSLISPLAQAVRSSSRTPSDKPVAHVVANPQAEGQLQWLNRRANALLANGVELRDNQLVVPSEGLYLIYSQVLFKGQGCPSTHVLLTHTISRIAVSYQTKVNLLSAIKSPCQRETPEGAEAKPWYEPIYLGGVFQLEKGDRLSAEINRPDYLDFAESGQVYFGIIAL
Sequence of DNA dC->dU-editing enzyme APOBEC-3A (P31941 whole entry): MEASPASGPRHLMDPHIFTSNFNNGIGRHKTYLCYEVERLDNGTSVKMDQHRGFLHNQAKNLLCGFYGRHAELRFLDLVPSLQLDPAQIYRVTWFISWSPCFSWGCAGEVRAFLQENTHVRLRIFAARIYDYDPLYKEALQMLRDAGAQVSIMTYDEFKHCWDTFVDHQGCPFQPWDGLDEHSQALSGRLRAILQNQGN

## c1ccc(-c2csc3ncnc(NCc4ccccn4)c23)cc1
HEK293 [1]
  IC50: 16.3 µM (active)
HEK293 [2]
  IC50: 11.5 µM (active)
HEK293 [3]
  IC50: 6.34 µM (active)
Tumor necrosis factor
  IC50: 4.23 µM (active)
[4]
  IC50: 3.2 µM (active)
HEK293 [5]
  EC50: 3.17 µM (active)
HEK293 [6]
  IC50: 7.16 µM (active)

## Cc1cc(NC(=O)CSc2nc(-c3ccccc3Cl)nc3c2c(=O)n(C)c(=O)n3C)no1
[7]
  EC50: > 99 µM (inactive)
[8]
  EC50: > 99 µM (inactive)

## COC(=O)CSc1nc2ccc(C)cc2cc1C#N
[7]
  EC50: > 99 µM (inactive)
[8]
  EC50: > 99 µM (inactive)

## Cc1ccc(NC(=O)c2ccccc2NS(=O)(=O)c2ccc(Cl)s2)cc1
[9]
  EC50: 7.91 µM (active)
[10]
  EC50: 0.215 µM (active)
[11]
  EC50: > 180 µM (inactive)
INS1
  AC50: 4.46 µM (active)
[12]
  EC50: 20.5 µM (active)

## CCSc1nnc(NC(=O)C2CCCN(S(=O)(=O)c3c[nH]cn3)C2)s1 (stereo unspecified)
[13]
  IC50: > 67.5 µM (inactive)
HEK293 [14]
  IC50: > 67.5 µM (inactive)

## Cc1cccc(-n2c(N)c(C(=O)N3CCN(C)CC3)sc2=S)c1
[15]
  IC50: 0.96 µM (active)
[16]
  IC50: 12.2 µM (active)
[17]
  IC50: > 100 µM (inactive)
[18]
  IC50: 4.7 µM (active)
[19]
  IC50: > 99 µM (inactive)
[20]
  IC50: > 99 µM (inactive)
[21]
  IC50: 3.32 µM (active)
[22]
  IC50: 0.108 µM (active)
[23]
  IC50: 3.6 µM (active) and 8.47 µM (active) and > 100 µM (inactive)
[24]
  IC50: > 100 µM (inactive)

## C(=C\c1ccccc1)/CN1CCN(c2ncnc3c2oc2ccccc23)CC1
[9]
  EC50: > 160 µM (inactive)
[25]
  AC50: 25.9 µM (active)
[26]
  AC50: 9.31 µM (active)
[10]
  EC50: 0.041 µM (active)
[27]
  AC50: 0.57 µM (active)
[28]
  AC50: 65.4 µM (active)
[11]
  EC50: > 180 µM (inactive)
[29]
  AC50: 1.98 µM (active)
[12]
  EC50: > 160 µM (inconclusive)

## Oc1c(/C=N/Cc2ccccc2)sc2ccccc12
[30]
  IC50: > 66 µM (inactive)
[13]
  IC50: > 67.5 µM (inactive)
HEK293 [14]
  IC50: > 22.5 µM (inactive)
[31]
  IC50: > 66 µM (inactive)
